Where two headings read alike, the source gives them in different places.
How the values were obtained:
GRK2 [1] = target: T1, GRK2 (Homo sapiens, UniProt P25098); test: GRK2 Inhibition Assay (TR-FRET, Example 1); format: biochemical
T1 sequence (P25098 1-689): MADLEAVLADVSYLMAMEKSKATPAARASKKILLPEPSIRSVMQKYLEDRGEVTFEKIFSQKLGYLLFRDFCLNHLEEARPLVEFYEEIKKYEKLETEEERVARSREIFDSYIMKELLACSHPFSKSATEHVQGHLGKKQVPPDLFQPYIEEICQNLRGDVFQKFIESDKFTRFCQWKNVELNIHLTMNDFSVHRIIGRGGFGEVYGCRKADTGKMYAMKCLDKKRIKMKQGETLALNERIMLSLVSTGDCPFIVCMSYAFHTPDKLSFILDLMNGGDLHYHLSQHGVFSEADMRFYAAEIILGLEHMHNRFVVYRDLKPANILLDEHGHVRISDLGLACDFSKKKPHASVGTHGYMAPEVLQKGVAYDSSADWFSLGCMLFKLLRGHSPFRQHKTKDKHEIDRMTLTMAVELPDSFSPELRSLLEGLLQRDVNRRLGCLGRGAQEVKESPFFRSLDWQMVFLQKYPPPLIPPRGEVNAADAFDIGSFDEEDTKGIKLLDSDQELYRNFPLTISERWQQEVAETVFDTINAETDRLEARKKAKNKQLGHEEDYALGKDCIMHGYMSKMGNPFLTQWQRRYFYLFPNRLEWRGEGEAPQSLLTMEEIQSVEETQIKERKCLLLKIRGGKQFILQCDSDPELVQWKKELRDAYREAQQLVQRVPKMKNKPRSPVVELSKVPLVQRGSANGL
Outline: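 TR-FRET phosphorylation readout: Eu anti-TopoIIα antibody with EDTA added after a 90 min RT kinase reaction of 1 nM GRK2, 7 μM ATP and 50 nM ULight-TopoIIα. Compounds were pre-incubated with enzyme 30 min at room temperature beforehand.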

PAXF1657 KO Clone #4 = test: 7-day cellular proliferation assay (CellTiter-Glo), PAXF1657 KO Clone #4; format: cell-based
Outline: (§1)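 Isogenic PAXF1657 pairs differing in GRK2 level (stable cDNA overexpression or CRISPR knockout, each with matched control) are seeded and allowed to attach overnight. Inhibitors span 30 μM-0.0002 μM in 0.3% DMSO for 3 plus 4 days at 37° C, 5% CO2, with a medium change between.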

GRK2 [2] = target: T1, GRK2; test: GRK2 Degradation Assay and Western Blot in PAXF1657 cells; format: cell-based; parameters: endogenous in cells; host or cells: PAXF1657; conditions: for DC50: PAXF1657, 24 h, read-out: Degradation Assay - Full Dose Response: IC50 (uM) [cell line: PAXF1657, time point: 24 h]
Outline: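 GRK2 degradation judged by immunoblot: NP40 lysates separated by SDS-PAGE and probed for GRK2 and β-actin, with HRP/ECL detection. Lysates came from PAXF1657 cells exposed to 0–10 μM compound for 6–24 h after reaching 70% confluency.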

PAXF1657 EV = test: 7-day cellular proliferation assay (CellTiter-Glo), PAXF1657 EV; format: cell-based
Outline: as §1

[3] = Table 4, Example 1 assay, read-out: Enzymatic GRK2 IC50: Av IC50 GRK2
[4] = proliferation, read-out: GeoMean IC50 (uM) PAXF1657 KO Clone #4
[5] = Conc 0.3 uM, read-out: Degradation Assay - 3 point: Degradation (%)
[6] = Conc 1 uM, read-out: Degradation Assay - 3 point: Degradation (%)
[7] = Conc 3 uM, read-out: Degradation Assay - 3 point: Degradation (%)
[8] = proliferation, read-out: GeoMean IC50 (UM) PAXF1657 EV

SMILES | IC50 (GRK2 [1]; [3]) | IC50 (PAXF1657 KO Clone #4; [4]) | inhibition at 0.3 µM (GRK2 [2]; [5]) | inhibition at 1 µM (GRK2 [2]; [6]) | inhibition at 3 µM (GRK2 [2]; [7]) | IC50 (PAXF1657 EV; [8]) | IC50 (GRK2 [1]; TR-FRET, 7 μM ATP, read-out: Enzymatic GRK2 Assay: IC50 (nM) (Example 1)) | IC50 (PAXF1657 KO Clone #4; 168 h, 7-day, read-out: 7-day proliferation assay: IC50 GeoMean (uM) [Cell Line: PAXF1657 KO Clone #4]) | inhibition at 0.3 µM (GRK2 [2]; 0.3 uM, PAXF1657 EV, 24 hrs, read-out: % GRK2 degradation at 0.3 uM in PAXF1657 EV (24 hrs)) | inhibition at 1 µM (GRK2 [2]; 1 uM, PAXF1657 EV, 24 hrs, read-out: % GRK2 degradation at 1 uM in PAXF1657 EV (24 hrs)) | inhibition at 3 µM (GRK2 [2]; 3 uM, PAXF1657 EV, 24 hrs, read-out: % GRK2 degradation at 3 uM in PAXF1657 EV (24 hrs)) | IC50 (PAXF1657 EV; 168 h, 7-day, read-out: 7-day proliferation assay: IC50 GeoMean (uM) [Cell Line: PAXF1657 EV]) | DC50 (GRK2 [2])
C[C@@H](NC(=O)c1cccc(NCc2nnc(-c3ccncn3)n2C)c1)c1cccc(OCCCCCCOCCOCCOCCCC(=O)Nc2cccc3c2CN(C2CCC(=O)NC2=O)C3=O)c1 (stereo partly drawn) [Compound D163, N-((1R)-1-(3-(6-(2-(2-(4-(2-(2,6-dioxopiperidin-3-yl)-1-oxoisoindolin-4-ylamino)-4-oxobutoxy)ethoxy)ethoxy)hexyloxy)phenyl)ethyl)-3-((4-methyl-5-(pyrimidin-4-yl)-4H-1,2,4-triazol-3-yl)methylamino)benzamide] | 16.6 nM | > 30 µM | 74.4% | 81.5% | 89.6% | 0.37 µM | – | – | – | – | – | – | –
C[C@@H](NC(=O)c1cccc(NCc2nnc(-c3ccncn3)n2C)c1)c1cccc(OCCCCCCOCCOCC(=O)Nc2cccc3c2CN(C2CCC(=O)NC2=O)C3=O)c1 (stereo partly drawn) [Compound D170, N-((1R)-1-(3-((6-(2-(2-((2-(2,6-dioxopiperidin-3-yl)-1-oxoisoindolin-4-yl)amino)-2-oxoethoxy)ethoxy)hexyl)oxy)phenyl)ethyl)-3-(((4-methyl-5-(pyrimidin-4-yl)-4H-1,2,4-triazol-3-yl)methyl)amino)benzamide] | 12.1 nM | > 30 µM | 51.6% | 72.9% | 81.5% | 0.41 µM | – | – | – | – | – | – | –
C[C@H](NC(=O)c1cccc(NCc2nnc(-c3ccncn3)n2C)c1)c1ccc(OCCCCCCOCCOCCOCCCCCC(=O)Nc2cccc3c2CN(C2CCC(=O)NC2=O)C3=O)cc1 (stereo partly drawn) [Compound D152, N-((1S)-1-(4-(6-(2-(2-(6-(2-(2,6-dioxopiperidin-3-yl)-1-oxoisoindolin-4-ylamino)-6-oxohexyloxy)ethoxy)ethoxy)hexyloxy)phenyl)ethyl)-3-((4-methyl-5-(pyrimidin-4-yl)-4H-1,2,4-triazol-3-yl)methylamino)benzamide] | > 1000 nM | > 30 µM | 24% | 28% | 38% | 12.7 µM | – | – | – | – | – | – | –
Cc1ncsc1-c1ccc([C@H](C)NC(=O)[C@@H]2C[C@@H](O)CN2C(=O)[C@@H](NC(=O)COCCCOCCCCCOc2cccc([C@@H](C)NC(=O)c3cccc(NCc4nnc(-c5ccncn5)n4C)c3)c2)C(C)(C)C)cc1 [Compound D169] | 14.5 nM | 8.15 µM | 23.6% | 39.4% | 24% | 0.12 µM | – | – | – | – | – | – | –
Cc1ncsc1-c1ccc(CNC(=O)[C@@H]2C[C@@H](O)CN2C(=O)[C@@H](NC(=O)CCCCCOCCOCCOCCCCCCOc2ccc(C(F)(F)F)c(CNC(=O)c3cccc(NCc4nnc(-c5ccncn5)n4C)c3)c2)C(C)(C)C)cc1 [Compound D92, (2S,4R)-1-((S)-2-(tert-butyl)-22-(3-((3-(((4-methyl-5-(pyrimidin-4-yl)-4H-1,2,4-triazol-3-yl)methyl)amino)benzamido)methyl)-4-(trifluoromethyl)phenoxy)-4-oxo-10,13,16-trioxa-3-azadocosan-1-oyl)-4-hydroxy-N-(4-(4-methylthiazol-5-yl)benzyl)pyrrolidine-2-carboxamide] | – | – | – | – | – | – | < 100 nM | > 10 µM | 34% | 12% | 5% | < 1 µM | –
C[C@@H](NC(=O)c1cccc(NCc2nnc(-c3ccncn3)n2C)c1)c1ccc(OCC(=O)N2CCN(c3ccc4c(c3)CN(C3CCC(=O)NC3=O)C4=O)CC2)cc1 (stereo partly drawn) [Compound D177, N-((1R)-1-(4-(2-(4-(2-(2,6-dioxopiperidin-3-yl)-1-oxoisoindolin-5-yl)piperazin-1-yl)-2-oxoethoxy)phenyl)ethyl)-3-((4-methyl-5-(pyrimidin-4-yl)-4H-1,2,4-triazol-3-yl)methylamino)benzamide] | 10.2 nM | > 30 µM | 13.2% | 20.9% | 36.8% | 27 µM | – | – | – | – | – | – | –
C[C@@H](NC(=O)c1cccc(NCc2nnc(-c3ccncn3)n2C)c1)c1cccc(OCCCCCCOCCOCCN2CCN(c3cc4c(cc3F)C(=O)N(C3CCC(=O)NC3=O)C4=O)CC2)c1 (stereo partly drawn) [Compound D140, N-((1R)-1-(3-(6-(2-(2-(4-(2-(2,6-dioxopiperidin-3-yl)-6-fluoro-1,3-dioxoisoindolin-5-yl)piperazin-1-yl)ethoxy)ethoxy)hexyloxy)phenyl)ethyl)-3-((4-methyl-5-(pyrimidin-4-yl)-4H-1,2,4-triazol-3-yl)methylamino)benzamide] | 20.9 nM | 19.9 µM | 88% | 92% | 93% | 0.78 µM | – | – | – | – | – | – | 0.12 µM
C[C@@H](NC(=O)c1cccc(NCc2nnc(-c3ccncn3)n2C)c1)c1ccc(OCCCCCCOCCOCCOCCCCCC(=O)Nc2cccc3c2CN(C2CCC(=O)NC2=O)C3=O)cc1 (stereo partly drawn) [Compound D147, N-((1R)-1-(4-(6-(2-(2-(6-(2-(2,6-dioxopiperidin-3-yl)-1-oxoisoindolin-4-ylamino)-6-oxohexyloxy)ethoxy)ethoxy)hexyloxy)phenyl)ethyl)-3-((4-methyl-5-(pyrimidin-4-yl)-4H-1,2,4-triazol-3-yl)methylamino)benzamide] | 10.1 nM | > 30 µM | 73.8% | 81.6% | 83.1% | 0.11 µM | – | – | – | – | – | – | –
C[C@@H](NC(=O)c1cccc(NCc2nnc(-c3ccncn3)n2C)c1)c1cccc(OCCCCCCOCCN2CCN(c3ccc4c(c3)CN(C3CCC(=O)NC3=O)C4=O)CC2)c1 (stereo partly drawn) [Compound D126, N-((1R)-1-(3-(6-(2-(4-(2-(2,6-dioxopiperidin-3-yl)-1-oxoisoindolin-5-yl)piperazin-1-yl)ethoxy)hexyloxy)phenyl)ethyl)-3-((4-methyl-5-(pyrimidin-4-yl)-4H-1,2,4-triazol-3-yl)methylamino)benzamide] | 4.56 nM | > 30 µM | 93.2% | 94.1% | 88% | 0.13 µM | – | – | – | – | – | – | 0.04 µM
C[C@@H](NC(=O)c1cccc(NCc2nnc(-c3ccncn3)n2C)c1)c1ccc(OCCCCCCOCCOCCOCCCC(=O)N2CCN(c3ccc4c(c3)CN(C3CCC(=O)NC3=O)C4=O)CC2)cc1 (stereo partly drawn) [Compound D124, N-((1R)-1-(4-(6-(2-(2-(4-(4-(2-(2,6-dioxopiperidin-3-yl)-1-oxoisoindolin-5-yl)piperazin-1-yl)-4-oxobutoxy)ethoxy)ethoxy)hexyloxy)phenyl)ethyl)-3-((4-methyl-5-(pyrimidin-4-yl)-4H-1,2,4-triazol-3-yl)methylamino)benzamide] | 5.4 nM | > 30 µM | 80.5% | 90.7% | 89.3% | 0.09 µM | – | – | – | – | – | – | 0.1 µM

From patent US20240174637A1, “DEGRADERS OF GRK2 AND USES THEREOF” (Sonata Therapeutics, Inc., priority 2021, published 2024)
